Measured values as given in ChEMBL document CHEMBL1201862, “PubChem BioAssay data set” (2004).
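Exposure lasted 48 hours, with cells grown in 96-well plates and compounds tested at five concentrations. GI50 = concentration required for 50% inhibition of growth.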 Activity calls are given as the source filed them. No stated cut-off is given here; in the data, active = GI50 up to about 1.1 µM and inactive = higher.

Key:
Test in all cases: NCI tumour cell line growth inhibition, 48 h
IGROV-1 = tested on: IGROV-1
SF-268 = tested on: SF-268
M14 = tested on: M14
NCI-H522 = tested on: NCI-H522
MDA-MB-231 = tested on: MDA-MB-231
SF-295 = tested on: SF-295
HT-29 = tested on: HT-29
RXF 393 = tested on: RXF 393
SF-539 = tested on: SF-539
UACC-257 = tested on: UACC-257
TK-10 = tested on: TK-10
T47D = tested on: T47D
UACC-62 = tested on: UACC-62
MDA-N = tested on: MDA-N
CCRF-CEM = tested on: CCRF-CEM
SK-MEL-5 = tested on: SK-MEL-5
SNB-75 = tested on: SNB-75
KM12 = tested on: KM12
SNB-19 = tested on: SNB-19
OVCAR-5 = tested on: OVCAR-5

Question: What does the source list for CCOC(=O)N1CCC2(CC1)C[C@](Sc1ccccc1)(C(C)=O)[C@H](C)O2?
Answer: GI50 (IGROV-1): > 100 µM (inactive); GI50 (SF-268): > 100 µM (inactive); GI50 (M14): > 100 µM (inactive); GI50 (NCI-H522): > 100 µM (inactive); GI50 (MDA-MB-231): > 100 µM (inactive); GI50 (SF-295): > 100 µM (inactive); GI50 (HT-29): > 100 µM (inactive); GI50 (RXF 393): > 100 µM (inactive); GI50 (SF-539): > 100 µM (inactive); GI50 (UACC-257): > 100 µM (inactive); GI50 (TK-10): > 100 µM (inactive); GI50 (T47D): > 100 µM (inactive); GI50 (UACC-62): > 100 µM (inactive); GI50 (MDA-N): 53.5 µM (inactive); GI50 (CCRF-CEM): 12.1 µM (inactive); GI50 (SK-MEL-5): > 100 µM (inactive); GI50 (SNB-75): > 100 µM (inactive); GI50 (KM12): > 100 µM (inactive); GI50 (SNB-19): > 100 µM (inactive); GI50 (OVCAR-5): > 100 µM (inactive)

Question: Which results are given for CCC1C(c2cc(OC)c(OC)c(OC)c2)c2cc3c(cc2OC1N1CCCC1)OCO3 (stereo not given)?
Answer: GI50 (IGROV-1): 2.62 µM (inactive); GI50 (SF-268): 4.58 µM (inactive); GI50 (M14): 1.75 µM (inactive); GI50 (NCI-H522): 2.29 µM (inactive); GI50 (MDA-MB-231): 3.83 µM (inactive); GI50 (SF-295): 1.07 µM (active); GI50 (HT-29): 1.37 µM (inactive); GI50 (RXF 393): 1.45 µM (inactive); GI50 (SF-539): 1.39 µM (inactive); GI50 (UACC-257): 4.59 µM (inactive); GI50 (TK-10): 7.91 µM (inactive); GI50 (T47D): 3.78 µM (inactive); GI50 (UACC-62): 1.31 µM (inactive); GI50 (MDA-N): 0.231 µM (active); GI50 (CCRF-CEM): 1.16 µM (inactive); GI50 (SK-MEL-5): 0.678 µM (active); GI50 (SNB-75): 2.46 µM (inactive); GI50 (KM12): 0.743 µM (active); GI50 (SNB-19): 2.74 µM (inactive); GI50 (OVCAR-5): 8.49 µM (inactive)

Question: Which GI50 (IGROV-1) does the source give for C#CCN1CCN(C(=S)N/N=C(\C)c2ccccn2)CC1 here?
Answer: 0.01 µM (active)

Question: What about the GI50 (SF-268) of the same molecule?
Answer: 0.889 µM (active)

Question: And the GI50 (M14)?
Answer: 0.0263 µM (active)

Question: What about the GI50 (NCI-H522) of the same molecule?
Answer: 0.0552 µM (active)

Question: What about the GI50 (MDA-MB-231) of the same molecule?
Answer: 1.28 µM (inactive)

Question: What about the GI50 (SF-295) of the same molecule?
Answer: 0.632 µM (active)

Question: What about the GI50 (HT-29) of the same molecule?
Answer: 0.115 µM (active)

Question: What about the GI50 (RXF 393) of the same molecule?
Answer: 0.465 µM (active)

Question: And the GI50 (SF-539)?
Answer: 1.49 µM (inactive)

Question: What about the GI50 (UACC-257) of the same molecule?
Answer: < 0.014 µM (active)

Question: And the GI50 (TK-10)?
Answer: 3.28 µM (inactive)

Question: What about the GI50 (T47D) of the same molecule?
Answer: 0.0016 µM (active)

Question: And the GI50 (UACC-62)?
Answer: 0.0252 µM (active)

Question: What about the GI50 (MDA-N) of the same molecule?
Answer: 1.46 µM (inactive)

Question: And the GI50 (CCRF-CEM)?
Answer: 0.01 µM (active)

Question: What about the GI50 (SK-MEL-5) of the same molecule?
Answer: 1.36 µM (inactive)

Question: And the GI50 (SNB-75)?
Answer: 4.86 µM (inactive)

Question: What about the GI50 (KM12) of the same molecule?
Answer: 0.161 µM (active)

Question: And the GI50 (SNB-19)?
Answer: 2.99 µM (inactive)

Question: And the GI50 (OVCAR-5)?
Answer: 0.069 µM (active)
